Marks after values point to notes of the source that are not given here.
Assays:
[1] = system: B-type natriuretic peptide; details: patients with symptomatic heart failure (Anand et al.); cited from earlier work
[2] = system: GDF-15; details: patients with symptomatic heart failure (Anand et al.); cited from earlier work
[3] = system: patients with acute heart failure; assay: Cox regression models of 180-day cardiovascular mortality in the acute heart failure trial; format: in vivo, human
Source text: Multivariable linear regression models were developed for the changes in biomarker levels from baseline to day 2 and 14 using baseline patient clinical characteristics and routine laboratory measures; backwards elimination in the placebo group was used, with p<0.10 as the criterion for retention in the model. Missing predictors were imputed with the treatment-group-specific median for continuous variables and mode for categorical variables. GDF-15 values were log-transformed. To allow consistency and comparability of models with and without biomarkers, missing follow-up biomarker levels were imputed using linear interpolation or as last observation carried forward if no following measure was available. The linearity of associations was assessed using restricted cubic splines, and if significant non-linearity was found (at p<0.10), a dichotomized, trichotomized, linear spline or quadratic or cubic polynomial transformation was chosen based on the univariable Akaike's Information Criterion. The serelaxin effect on GDF-15 changes was then estimated with multivariable adjustment for covariates prognostic of these changes in the placebo group.
Associations of baseline biomarker values and changes with clinical outcomes were estimated with linear regression for dyspnea VAS AUC, and with Cox regression models for 60-day rehospitalization for heart failure or renal failure or cardiovascular death and for 180-day cardiovascular mortality. Linearity of associations of GDF-15 values with outcomes was assessed as above. Mean changes in biomarkers over time were estimated from repeated measures analysis of variance models, with no imputation for missing values.

[4] = system: NTproBNP; assay: NTproBNP in the pulmonary hemodynamic study (Example 2); format: in vivo, human; details: 20 hour infusion; p=0.037
Method: (§1) In a separate study, the pulmonary hemodynamic effects (e.g., the pulomonary load) of serelaxin were evaluated in patients hospitalized with acute heart failure (Ponikowski et al., Eur Heart J 35:431-441 (2014)). Patients were randomized 1:1 to serelaxin or placebo, initially stabilized, then infused with serelaxin at a dose of 30 ug/kg/d for 20 hours. Pulmonary congestion at the time of presentation was a required inclusion criterion. Time elapsed from hospital admission to the beginning of intravenous infusion of serelaxin was less than 29 hours. Serelaxin exerted rapid hemodynamic effects; changes were detected within the first 30 minutes of infusion and were sustained throughout the treatment period. Serelaxin reduced the time weighted average pulmonary capillary wedge pressure from baseline in the first eight hours of treatment (p=0.0001) as well as during hours 8-20 (p=0.03).
(§2) Pulmonary capillary wedge pressure (PCWP), mean pulmonary artery pressure (PAP), and pulmonary vascular resistance (PVR) were measured as well as NTproBNP and GDF-15 An analysis was performed of the association of GDF-15 and NTproBNP with these hemodynamic indices.

[5] = system: GDF-15; assay: Serum GDF-15 by electrochemiluminescent immunoassay in placebo-controlled acute heart failure trial (Example 1); format: in vivo, human
Method: (§3) In an international, double-blind, placebo-controlled trial (Teerlink et al., Lancet 381:29-39 (2013)) the entire contents of which are herein incorporated by reference, patients displaying pulmonary congestion on chest radiograph and admitted to the hospital for acute heart failure were randomized to a 48 hour intravenous infusion of placebo or 30 μg/kg/d serelaxin. Time elapsed from arrival to the hospital to the intravenous administration of serelaxin was less than nine hours. […] The 48 hour infusion of serelaxin reduced cardiovascular death at 180 days ([…]). No previous intervention outcome trial in patients with acute heart failure has shown a beneficial effect on post discharge mortality.
Blood samples for biomarker analysis were collected in serum separating tubes prior to initiation of serelaxin or placebo (baseline) and at days 2, 5, 14, and 60. ‘The serum samples were centrifuged within 30 to 60 minutes of collection following visualization of a clot, frozen at −20° C. for up to four weeks, then sent on dry ice to a central laboratory for storage at −80° C. until the analysis was performed. GDF-15 was measured in the samples using a pre-commercial electrochemiluminescent immunoassay provided by Roche Diagnostics GmbH (Mannheim, Germany). All samples from the same patient were analyzed at the same time at a certified central laboratory by personnel blinded to patient treatment and study data. The reporting range for GDF-15 was 400 to 20,000 ng/L.
Multivariable linear regression models were developed for the changes in GDF-15 levels from baseline to days 2 and 14 using baseline patient clinical characteristics and routine laboratory measures; backwards elimination in the placebo, group was used, with p<0.10 as the criterion for retention in the model. Missing predictors were imputed with the treatment-group-specific median for continuous variables and mode for categorical variables. GDF-15 values were log-transformed. The linearity of associations was assessed using restricted cubic splines, and if significant non-linearity was found (at p<0.10), a dichotomized, trichotoniized, linear spline or quadratic or cubic polynomial transformation was chosen based on the univariable Akaike's Information Criterion. Adjusted R^2 values from 5-fold cross-validations are presented. The serelaxin effect on biomarker changes was then estimated in all patients with multivariable adjustment for covariates prognostic of these changes in the placebo group.

[6] = system: patients hospitalized with acute heart failure; assay: Pulmonary hemodynamic effects in patients hospitalized with acute heart failure (Example 2); format: in vivo, human
Method: as §1, §2

[7] = system: patients with acute heart failure; assay: Clinical outcomes in the acute heart failure trial (dyspnea, hospital stay, cardiovascular death); format: in vivo, human
Method: as §3
Changes in patient-reported dyspnea were assessed through day 5 as the area under the change from baseline in visual analog scale score through day 5, where the worst possible score was assigned following death or worsening heart failure (dyspnea VAS AUC). Reasons for rehospitalization through day 60 and causes of deaths through day 180 were adjudicated centrally by a blinded endpoint committee.

[8] = system: GDF-15; assay: GDF-15 in the pulmonary hemodynamic study, 20 hour infusion (Example 2); format: in vivo, human
Method: as §1
GDF-15 was measured in blood samples collected in serum separating tubes. The serum samples were centrifuged within two hours and plasma was stored at −20° C. or lower, followed by storage at −80° C. until the analysis was performed. GDF-15 was measured using a pre-commercial electrochemiluminescent immunoassay provided by Roche Diagnostics GmbH (Mannheim, Germany). All samples from the same patient were analyzed at the same time at a certified central laboratory by personnel blinded to patient treatment and study data.

[9] = system: patients with acute heart failure; details: Phase 3 trial in acute heart failure (Teerlink et al.); cited from earlier work
[10] = 30 ug/kg/d infusion for 20 hours

CCCCC(=O)N(Cc1ccc(-c2ccccc2-c2nnn[nH]2)cc1)[C@H](C(=O)O)C(C)C [Valsartan]
heart failure biomarker B-type natriuretic peptide [1]: lower | effect on GDF-15 [2]: no effect

Serelaxin
HR, CV death through Day 180 ([3]; adjusted for baseline GDF-15 and change in GDF-15 from baseline to Day 2): 0.832 | HR, CV death through Day 180 ([3]; adjusted for baseline GDF-15 and change in GDF-15 from baseline to Day 14, N = 1037): 0.847 | HR, CV death through Day 180 ([3]; adjusted for change in GDF-15 from baseline to Day 2 and multivariable predictors of outcome): 0.763 | HR, CV death through Day 180 ([3]; adjusted for change in GDF-15 from baseline to Day 14 and multivariable predictors of outcome, N = 1037): 0.753 | hazard ratio for 180-day CV mortality ([3]; multivariable adjustment for baseline covariates, without GDF-15 change, 95% CI 0.430-1.028): 0.665 | hazard ratio for 180-day CV mortality ([3]; unadjusted for other baseline covariates, 95% CI 0.403-0.950): 0.619 | NTproBNP [4]: significantly reduced | GeoMean GDF-15 ([5]; Baseline (before start of infusion)): 4380.3 ng/L | Median GDF-15 ([5]; Baseline (before start of infusion), serelaxin group n = 530): 4115.5 ng/L | GDF-15 GeoMean Change vs Baseline ([5]; Day 2): −21.6%* | GeoMean GDF-15 ([5]; Day 2, 48 hour iv infusion 30 μg/kg/d): 3395.6 ng/L | Median GDF-15 ([5]; Day 2, 48 hour iv infusion 30 μg/kg/d, n = 530): 3341.0 ng/L | GDF-15 GeoMean Change vs Baseline ([5]; Day 5): −14.95* % | GeoMean GDF-15 ([5]; Day 5, 48 hour iv infusion 30 μg/kg/d): 3690.3 ng/L | Median GDF-15 ([5]; Day 5, 48 hour iv infusion 30 μg/kg/d, n = 530): 3584.5 ng/L | GDF-15 GeoMean Change vs Baseline ([5]; Day 14): −20.2%* | GeoMean GDF-15 ([5]; Day 14, 48 hour iv infusion 30 μg/kg/d): 3397.0 ng/L | Median GDF-15 ([5]; Day 14, 48 hour iv infusion 30 μg/kg/d, n = 530): 3296.0 ng/L | GDF-15 GeoMean Change vs Baseline ([5]; Day 60): −26.4%* | GeoMean GDF-15 ([5]; Day 60, 48 hour iv infusion 30 μg/kg/d): 3114.0 ng/L | Median GDF-15 ([5]; Day 60, 48 hour iv infusion 30 μg/kg/d, n = 530): 2981.5 ng/L | GDF-15 levels versus placebo, both in addition to standard of care ([5]; day 14): approached statistical significance | GDF-15 level ([5]; day 60): trend towards lower | GDF-15 levels versus placebo, both in addition to standard of care ([5]; days 2 and 5): significantly lower | decrease in GDF-15 ([5]; to day 14): faster decrease | pulmonary vascular resistance ([6]; 30 ug/kg/d infusion): concomitant decrease | systemic vascular resistance ([6]; 30 ug/kg/d infusion): concomitant decrease | time weighted average pulmonary capillary wedge pressure from baseline ([6]; first eight hours of treatment, p=0.0001): reduced | time until hemodynamic changes were detected ([6]; from start of infusion, sustained throughout the treatment period): ≤ 30 min | time weighted average pulmonary capillary wedge pressure from baseline ([6]; hours 8-20, p=0.03): reduced | improvements in PCWP, PAP and PVR compared to placebo ([6]; over the 20 hour infusion period, all p values <0.005): favored serelaxin | systolic and diastolic pulmonary arterial pressure ([6]; p=0001 at four hours): significantly lowered | cardiovascular death at 180 days ([7]; 48 hour infusion, p=0.28): reduced | patient-reported general well-being ([7]; 48 hour iv infusion 30 μg/kg/d): improvements | primary dyspnea efficacy endpoint, Visual Acuity Scale area under the curve ([7]; 48 hour iv infusion 30 μg/kg/d vs placebo, p=0.007): significantly improved | reduction of time in the intensive care or coronary care unit ([7]; vs placebo, p=0.03): 0.4 days | reduction of average length of hospital stay ([7]; vs placebo, p=0.04): 0.9 days | GDF-15 levels versus placebo [8, 10]: significantly decreased | reduction of GDF-15 geo-mean from baseline [8, 10]: 16% | GDF-15 treatment difference in favor of serelaxin versus placebo ([8]; 30 ug/kg/d infusion for 20 hours, p=0.0204): 18% | baseline median GDF-15 ([8]; baseline, serelaxin group): 3260 ng/L | dyspnea [9]: rapid relief | mortality at six months [9]: reduced
